Measured values taken from US10463609B2, “Dendrimers for sustained release of compounds” (WAYNE STATE UNIVERSITY, priority 2007, dated 2019).

Legend:
[1] = Drug release from PLGA microspheres; assay type: physicochemical; details: ~5-10 μm PLGA microspheres containing 5% by mass of FA
Description: Drug release from PLGA microspheres was studied as follows. The drug release kinetics for free fluocinolone acetonide was analyzed for the same PLGA microspheres. For ˜5 -10 μm microspheres (containing 5% by mass of FA), the release was ˜0.5 μg/day (average) for the first thirty days, with a cumulative release of ˜30% in one month. There was 3% initial burst in the first three days. For dendrimer-FA conjugates, the initial burst may be capable of elimination due to their relatively larger size.

RCS rats [2] = test: Quantitative histology of ONL and INL cells, FA sustained-release intravitreal drug delivery implants (IDDIs) in RCS rats; assay type: in vivo, rat
Source text: According to this Example, the steroid fluocinolone acetonide (FA) was highly neuroprotective in slowing the retinal degeneration of RCS rats when delivered via sustained-release intravitreal drug delivery implants (IDDIs).

RCS rats [3] = test: ERG b-wave amplitudes, FA IDDIs in RCS rats; assay type: in vivo, rat
Description: In other experiments, fluocinolone acetonide preserved electroretinogram b-wave amplitudes in treated eyes. The ONL data were consistent with ERG findings in the same animals (FIG. 9A). […] Although mean b-wave amplitude values in the eyes treated with FA 0.5 μg/day were quantitatively lower than the values in the eyes treated with FA 0.2 μg/day, there was no statistically significant difference between them (p=0.113).
Quantitatively, the left eye-ERG b-wave amplitudes of the FA 0.2 μg/day-treated group at the four-week time point were greater than those of control right and left eyes and placebo group-right and left eyes. […] The fellow-eye effects were attributed to drug-crossover. This is commonly seen in small mammals in which the volume of distribution is small.

RCS rats [4] = test: Electroretinography after single intravitreal injection of D-FA or free FA in RCS rats; assay type: in vivo, rat; details: for ERG a-wave amplitude change, OD / ERG a-wave amplitude change, OS / ERG b-wave amplitude change, OD / ERG b-wave amplitude change, OS: Mean±Standard Error
Description: Neuroprotective effects of dendrimer-FA (D-FA) nanodevices were determined as follows. The neuroprotective effects of intravitreally-injected D-FA nanodevices to free-FA injections and IDDIs that release free-FA at a sustained daily rate were compared. […] Here the 1 μg and 3 μg refer to the FA content in D-FA. ONL cell densities were higher for D-FA than those measured for IDDIs and free FA injections.
The efficacy was analyzed using electroretinography (ERG) and histology.
Thirty albino RCS rats aged five weeks were divided into six equal groups. The experiments were terminated at nine weeks. Thus, the efficacy was evaluated over the four-week peak period of retinal degeneration in the RCS rats. The groups were: • 1. intravitreal injection of 3.0 μg dendrimer-conjugated fluocinolone acetonide (FA) in 1.0 μL of Phosphate Buffered Solution (PBS); • 2. intravitreal injection of 1.0 μg dendrimer-conjugated FA in 1.0 μL of PBS; • 3. intravitreal injection of 3.0 μg FA in 1.0 μL of PBS; • 4. intravitreal injection of 1.0 μg FA in 1.0 μL of PBS; • 5. intravitreal injection of 1 μL of PBS (vehicle control); • 6. light-exposed unoperated controls.

[5] = tested on: activated retinal microglial cells; test: Quantitative histology of activated retinal microglial cells by ED-1 immunolabelling, FA IDDIs in RCS rats; assay type: in vivo, rat; details: p<0.001
Description: FA suppressed neuroinflammation in RCS rats. In examining the mechanism of action of FA in preserving the ONL and ERG in the RCS rat, quantitative histological analysis of activated retinal microglial cells were performed using ED-1 immunolabelling. The photoreceptor layer and outer debris zone in RCS rats contain damaged lipid membranes that amplified photoreceptor damage by activating microglia to become phagocytic and release toxic substances such as tumor-necrosis factor alpha (TNF-α).

[6] = Water solubility of the conjugate; assay type: physicochemical
Source text: The glutaric acid spacer relieves the steric hindrance on the dendrimer surface, enabling intracellular drug release.
The filtrate was dialysed against DMSO for three days by replacing DMSO after each day (dialysis membrane cutoff 1000 Da) to remove unreacted compounds. The dialyzed product was dried under vacuum to obtain conjugate. ^1H-NMR was used to characterize the conjugate.

[7] = tested on: Royal College of Surgeons retinal degeneration model (RCS) rats; test: Retinal biodistribution after intravitreal injection, epi-fluorescence histology of retinal cryosections, RCS rats; assay type: in vivo, rat
Source text: Retinal biodistribution of free-FITC and dendrimer-conjugated FITC (D-FITC) in healthy Sprague-Dawley (SD) and Royal College of Surgeons retinal degeneration model (RCS) rats with active neuroinflammation was studied. Epi-fluorescence histology from retinal cryosections performed 24-hours and ten days after intravitreal injection is shown in […] as follows.
The first set of results is shown in FIGS. 10A-10F, epi-fluorescence histology from retinal cryosections performed twenty four hours and ten days after intravitreal injection, showing (FIG. 10A) D-FITC distribution in normal SD rats at twenty four hours, and (FIG. 10B) D-FITC distribution in the RCS retinal neurodegeneration model at twenty four hours. The concentration of D-FITC within the outer nuclear layer (denoted by *) and debris zone are significant findings.
The D-FITC localization in the outer-retina was further analyzed by immunohistochemical labeling for activated microglial cells, astrocytes, and Mueller cells and the photoreceptors (as shown in FIGS. 11A-11D, FIGS. 12A-12B, FIGS. 13A-13D, FIG. 14, and FIGS. 15A-15B). […] There was minimal accumulation in the other cells in the inner and outer retina. FIGS. 11A-11D show Microglial uptake of D-FITC. (FIG. 11A) ED-1 immuno-histochemical labeling of inner-retinal microglial cells; (FIG. 11B) D-FITC uptake within inner retinal microglia (60×); (FIG. 11C) outer retinal ED-1 labeled activated microglia; and (FIG. 11D) D-FITC uptake within activated microglia.

[8] = FA 0.5 μg/day IDDI, treated eyes, four-week study
[9] = 1.0 μg intravitreal in 1.0 μL PBS, end of study vs beginning
[10] = 3.0 μg intravitreal in 1.0 μL PBS, end of study vs beginning

## CC1(C)O[C@@H]2C[C@H]3[C@@H]4C[C@H](F)C5=CC(=O)C=C[C@]5(C)[C@@]4(F)[C@@H](O)C[C@]3(C)[C@]2(C(=O)CO)O1 [FA, fluocinolone acetonide]
[1]; first thirty days
  release rate (average): ~0.5 µg/day
[1]; first three days
  initial burst: 3%
[1]; in one month
  cumulative release: ~30%
RCS rats [2]; FA 0.2 μg/day IDDI, treated eyes, four-week study
  ONL cell densities relative to inactive IDDI group: 4.85±0.24 times
RCS rats [2]; FA 0.2 μg/day IDDI, treated eyes, four-week study, nine-week RCS rats
  ONL cell densities relative to non-surgical controls: 2.38±0.12 times
RCS rats [2]; [8]
  ONL counts relative to eyes that received inactive IDDIs: 3.56±0.17 times
  ONL counts relative to non-surgical control eyes: 1.78±0.21 times
RCS rats [2]; FA 0.2 and 0.5 μg/day IDDIs vs inactive implants and non-surgical controls
  inner nuclear layer cell counts between groups: No significant differences
RCS rats [3]; 0.2 μg/day and 0.5 μg/day FA IDDIs, p<0.001
  mean four-week postoperative ERG b-wave amplitudes, treated eyes: significantly greater than those of the unoperated control and placebo-treated eyes
RCS rats [3]; FA 0.2 μg/day IDDI group vs placebo-treated or control eyes
  mean ERG b-wave amplitudes of left (fellow) eyes: No statistically significant differences
RCS rats [3]; FA 0.5 μg/day IDDI group, four weeks, cross-over effect
  mean ERG b-wave amplitudes of left (fellow) eyes: significantly different from those of right and left eyes of unoperated control animals
RCS rats [4]; [9]
  ERG a-wave amplitude change, OD: −41.9 ± 13.4%
  ERG a-wave amplitude change, OS: −47.8 ± 7.7%
  ERG b-wave amplitude change, OD: −64.2 ± 8.6%
  ERG b-wave amplitude change, OS: −55.6 ± 3.6%
RCS rats [4]; 3.0 μg intravitreal in 1.0 μL PBS, end of study (9 weeks of age) vs beginning (5 weeks), loss (−)/gain (+) from initial amplitude
  ERG a-wave amplitude change, OD: −12.5 ± 28.8%
RCS rats [4]; [10]
  ERG a-wave amplitude change, OS: −10.5 ± 30.1%
  ERG b-wave amplitude change, OD: −42.6 ± 3.3%
  ERG b-wave amplitude change, OS: −40.8 ± 3.5%
RCS rats [4]; at nine weeks of age, right vs left eyes
  end-point ERG a-wave (photoreceptor response) amplitudes: not true
[5]; FA 0.2 μg/day IDDI
  activated microglial cell densities in the debris layer vs eyes with inactive IDDIs: nine-fold decrease
  activated microglial cell densities in the debris layer vs non-surgical control eyes: five-fold decrease
[5]; FA 0.5 μg/day IDDI
  debris zone activated microglial density vs eyes with inactive IDDIs: seven times lower
  debris zone activated microglial density vs non-surgical control eyes: four times lower
[6]
  solubility in water: not water soluble at comparable concentrations

## fluorescein isothiocyanate [Free-FITC]
[7]; RCS rats, 24 hours after intravitreal injection
  retinal distribution at 24 hours: uniformly distributed
[7]; RCS rats, ten days after intravitreal injection
  retinal retention at ten days: cleared from the retina
[7]; after intravitreal injection, 24 hours, similar at ten days
  FITC fluorescence in the retinal pigment epithelium (RPE): No FITC fluorescence was observed
